Measurements published in ChEMBL document CHEMBL4800722, “Data for DCP probe BI 605906” (2021).

Columns and labels:
[1] = molecular target: Collagenase 3 (Homo sapiens) (UniProt P45452); details: Compound concentration 10.0 uM
[2] = molecular target: GABA-A receptor; anion channel (Rattus norvegicus) (UniProt O09028+P15431+P18506+P18508+P19969+P20236+P23574+P23576+P28471+P28473+P30191+P62813+P63079+P63138+Q91ZM7+Q9ES14); details: Compound concentration 10.0 uM
[3] = molecular target: Serine/threonine-protein kinase B-raf (Homo sapiens) (UniProt P15056); test: BRAF Invitrogen Lab (UK) kinase screen (BI); details: Compound concentration 1.0 uM
[4] = molecular target: Ephrin type-A receptor 6 (Homo sapiens) (UniProt Q9UF33); details: Compound concentration 1.0 uM
[5] = molecular target: Activated CDC42 kinase 1 (Homo sapiens) (UniProt Q07912); details: Compound concentration 1.0 uM
[6] = molecular target: AMP-activated protein kinase alpha-2/beta-1/gamma-3 (Homo sapiens) (UniProt P54646+Q9Y478+Q9UGI9); details: Compound concentration 1.0 uM
[7] = molecular target: Lymphokine-activated killer T-cell-originated protein kinase (Homo sapiens) (UniProt Q96KB5); details: Compound concentration 10.0 uM
[8] = molecular target: Ribosomal protein S6 kinase alpha-1 (Homo sapiens) (UniProt Q15418); details: Compound concentration 1.0 uM
[9] = molecular target: cGMP-dependent protein kinase 1 (Homo sapiens) (UniProt Q13976); details: Compound concentration 1.0 uM
[10] = molecular target: Serine/threonine-protein kinase SIK3 (Homo sapiens) (UniProt Q9Y2K2); test: SIK3 Invitrogen Lab (UK) kinase screen (BI); details: Compound concentration 1.0 uM
[11] = molecular target: Phosphatidylinositol 4-kinase beta (Homo sapiens) (UniProt Q9UBF8); details: Compound concentration 1.0 uM
[12] = molecular target: Serine/threonine-protein kinase D1 (Homo sapiens) (UniProt Q15139); test: PKD1 DUNDEE kinase screen (BI); details: Compound concentration 10.0 uM
Serine/threonine-protein kinase D1 (Homo sapiens), sequence (Q15139 whole entry, looked up): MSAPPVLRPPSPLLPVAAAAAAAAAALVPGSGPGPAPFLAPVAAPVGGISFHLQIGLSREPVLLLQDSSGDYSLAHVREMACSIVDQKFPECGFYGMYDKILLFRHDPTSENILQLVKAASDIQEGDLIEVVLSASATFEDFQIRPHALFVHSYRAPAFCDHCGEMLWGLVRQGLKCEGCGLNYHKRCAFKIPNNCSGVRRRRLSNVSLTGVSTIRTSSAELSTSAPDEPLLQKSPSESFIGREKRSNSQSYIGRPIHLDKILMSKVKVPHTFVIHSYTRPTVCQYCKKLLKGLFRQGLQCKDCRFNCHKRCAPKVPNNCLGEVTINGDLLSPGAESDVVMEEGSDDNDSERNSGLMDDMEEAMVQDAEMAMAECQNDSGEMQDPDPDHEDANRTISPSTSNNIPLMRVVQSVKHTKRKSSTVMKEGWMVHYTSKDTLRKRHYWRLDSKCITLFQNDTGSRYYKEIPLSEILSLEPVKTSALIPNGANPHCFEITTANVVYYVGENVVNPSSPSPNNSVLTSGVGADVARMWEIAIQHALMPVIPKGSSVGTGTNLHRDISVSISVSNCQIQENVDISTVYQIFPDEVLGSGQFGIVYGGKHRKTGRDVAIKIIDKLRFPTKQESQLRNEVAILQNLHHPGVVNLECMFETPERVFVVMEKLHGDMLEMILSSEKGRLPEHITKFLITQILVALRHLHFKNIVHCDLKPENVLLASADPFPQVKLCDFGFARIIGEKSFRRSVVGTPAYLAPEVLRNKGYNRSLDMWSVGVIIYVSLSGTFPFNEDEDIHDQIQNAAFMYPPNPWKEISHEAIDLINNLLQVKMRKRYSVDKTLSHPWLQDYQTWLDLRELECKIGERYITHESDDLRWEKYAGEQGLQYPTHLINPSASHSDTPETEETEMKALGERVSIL

Serine/threonine-protein kinase B-raf (Homo sapiens), sequence (P15056 whole entry): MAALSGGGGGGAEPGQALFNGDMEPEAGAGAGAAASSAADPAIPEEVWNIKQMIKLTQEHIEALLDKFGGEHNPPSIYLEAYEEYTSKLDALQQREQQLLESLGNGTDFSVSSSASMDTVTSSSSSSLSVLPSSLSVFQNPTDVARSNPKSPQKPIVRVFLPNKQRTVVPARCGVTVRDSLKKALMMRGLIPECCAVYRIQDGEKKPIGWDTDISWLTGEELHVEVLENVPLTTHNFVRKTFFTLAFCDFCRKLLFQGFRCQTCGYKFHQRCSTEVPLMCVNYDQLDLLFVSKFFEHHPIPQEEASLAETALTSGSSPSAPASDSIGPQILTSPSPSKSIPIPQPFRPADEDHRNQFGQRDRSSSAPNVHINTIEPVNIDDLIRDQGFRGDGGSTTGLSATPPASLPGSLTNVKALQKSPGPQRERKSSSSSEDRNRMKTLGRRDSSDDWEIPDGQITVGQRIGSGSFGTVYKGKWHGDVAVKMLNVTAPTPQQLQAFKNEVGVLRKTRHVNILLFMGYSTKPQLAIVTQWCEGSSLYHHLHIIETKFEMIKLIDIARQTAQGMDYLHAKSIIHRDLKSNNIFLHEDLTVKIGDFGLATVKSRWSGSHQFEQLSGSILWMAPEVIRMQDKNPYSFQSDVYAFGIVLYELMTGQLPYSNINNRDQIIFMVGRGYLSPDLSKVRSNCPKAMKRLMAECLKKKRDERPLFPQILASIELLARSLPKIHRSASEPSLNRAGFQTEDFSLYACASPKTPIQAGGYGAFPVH
Serine/threonine-protein kinase SIK3 (Homo sapiens), sequence (Q9Y2K2 whole entry, looked up): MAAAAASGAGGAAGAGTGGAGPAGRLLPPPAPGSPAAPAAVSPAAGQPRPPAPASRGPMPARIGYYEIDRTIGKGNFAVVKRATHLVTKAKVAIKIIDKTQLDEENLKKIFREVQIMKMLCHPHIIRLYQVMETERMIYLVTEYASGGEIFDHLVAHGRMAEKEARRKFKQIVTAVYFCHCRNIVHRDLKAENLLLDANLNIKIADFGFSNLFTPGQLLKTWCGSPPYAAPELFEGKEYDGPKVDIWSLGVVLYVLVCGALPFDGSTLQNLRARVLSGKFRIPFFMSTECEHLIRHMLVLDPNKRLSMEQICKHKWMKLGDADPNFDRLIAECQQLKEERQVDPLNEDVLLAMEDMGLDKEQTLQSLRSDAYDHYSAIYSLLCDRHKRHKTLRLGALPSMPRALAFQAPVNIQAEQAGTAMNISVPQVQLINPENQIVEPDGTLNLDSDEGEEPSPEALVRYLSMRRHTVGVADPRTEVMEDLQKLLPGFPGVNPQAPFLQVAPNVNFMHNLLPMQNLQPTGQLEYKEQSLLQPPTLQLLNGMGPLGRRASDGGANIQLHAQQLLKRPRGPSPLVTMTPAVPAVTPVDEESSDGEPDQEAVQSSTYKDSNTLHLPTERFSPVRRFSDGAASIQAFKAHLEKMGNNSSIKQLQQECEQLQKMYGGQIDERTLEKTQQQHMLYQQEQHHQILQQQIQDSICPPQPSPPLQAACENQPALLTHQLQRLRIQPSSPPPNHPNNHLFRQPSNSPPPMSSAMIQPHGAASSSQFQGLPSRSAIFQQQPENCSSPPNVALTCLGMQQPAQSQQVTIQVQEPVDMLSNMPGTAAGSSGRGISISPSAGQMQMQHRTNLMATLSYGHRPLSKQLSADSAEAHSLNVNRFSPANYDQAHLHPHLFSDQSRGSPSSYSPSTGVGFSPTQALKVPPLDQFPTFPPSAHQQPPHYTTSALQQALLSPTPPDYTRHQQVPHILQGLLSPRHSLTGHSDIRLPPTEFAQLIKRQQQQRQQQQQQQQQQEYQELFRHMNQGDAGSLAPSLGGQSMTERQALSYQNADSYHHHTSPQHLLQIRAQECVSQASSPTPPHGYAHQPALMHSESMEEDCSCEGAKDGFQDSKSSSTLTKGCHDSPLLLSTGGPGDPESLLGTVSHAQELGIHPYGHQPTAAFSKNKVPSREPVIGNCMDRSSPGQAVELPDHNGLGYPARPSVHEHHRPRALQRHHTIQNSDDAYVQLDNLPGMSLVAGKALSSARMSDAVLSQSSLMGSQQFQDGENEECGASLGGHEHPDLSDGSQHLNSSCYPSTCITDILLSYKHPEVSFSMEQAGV
AMP-activated protein kinase alpha-2/beta-1/gamma-3 (Homo sapiens), sequence (P54646 whole entry): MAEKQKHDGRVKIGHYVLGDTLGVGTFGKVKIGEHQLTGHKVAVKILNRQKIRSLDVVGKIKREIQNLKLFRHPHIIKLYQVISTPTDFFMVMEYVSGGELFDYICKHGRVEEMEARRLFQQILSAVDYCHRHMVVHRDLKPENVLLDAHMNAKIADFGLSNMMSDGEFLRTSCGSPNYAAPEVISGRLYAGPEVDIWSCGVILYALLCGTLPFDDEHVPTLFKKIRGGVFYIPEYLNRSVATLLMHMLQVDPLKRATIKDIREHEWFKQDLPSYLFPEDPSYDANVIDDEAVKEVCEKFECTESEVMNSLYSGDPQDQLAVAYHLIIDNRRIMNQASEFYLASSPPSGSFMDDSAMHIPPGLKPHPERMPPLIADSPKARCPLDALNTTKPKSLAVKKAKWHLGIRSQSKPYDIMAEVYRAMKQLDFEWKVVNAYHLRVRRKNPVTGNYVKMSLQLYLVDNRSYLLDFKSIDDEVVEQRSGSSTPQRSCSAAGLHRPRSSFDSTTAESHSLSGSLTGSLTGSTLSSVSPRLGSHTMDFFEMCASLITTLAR
AMP-activated protein kinase alpha-2/beta-1/gamma-3 (Homo sapiens), sequence (Q9UGI9 whole entry partner): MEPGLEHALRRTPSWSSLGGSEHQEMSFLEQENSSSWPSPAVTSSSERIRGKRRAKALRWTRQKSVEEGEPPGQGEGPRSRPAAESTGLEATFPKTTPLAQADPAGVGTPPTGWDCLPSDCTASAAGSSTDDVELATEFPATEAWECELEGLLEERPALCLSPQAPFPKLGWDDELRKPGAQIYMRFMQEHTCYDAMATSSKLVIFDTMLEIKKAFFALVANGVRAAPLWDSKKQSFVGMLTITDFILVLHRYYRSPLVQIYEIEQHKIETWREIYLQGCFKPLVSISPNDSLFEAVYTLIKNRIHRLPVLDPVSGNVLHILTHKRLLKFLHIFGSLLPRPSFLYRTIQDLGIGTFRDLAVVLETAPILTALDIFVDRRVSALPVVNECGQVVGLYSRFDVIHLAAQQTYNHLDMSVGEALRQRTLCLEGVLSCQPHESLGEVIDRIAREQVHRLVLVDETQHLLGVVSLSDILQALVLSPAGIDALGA
AMP-activated protein kinase alpha-2/beta-1/gamma-3 (Homo sapiens), sequence (Q9Y478 2-270 partner limits assumed): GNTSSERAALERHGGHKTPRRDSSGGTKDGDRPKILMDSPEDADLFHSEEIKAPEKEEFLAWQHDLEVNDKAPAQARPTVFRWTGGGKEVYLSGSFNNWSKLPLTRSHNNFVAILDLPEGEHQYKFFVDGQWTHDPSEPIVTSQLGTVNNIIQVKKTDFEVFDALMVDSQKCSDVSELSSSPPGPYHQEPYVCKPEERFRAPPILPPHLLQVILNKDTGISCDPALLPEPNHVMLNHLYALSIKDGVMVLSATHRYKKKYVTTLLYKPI
Ribosomal protein S6 kinase alpha-1 (Homo sapiens), sequence (Q15418 whole entry): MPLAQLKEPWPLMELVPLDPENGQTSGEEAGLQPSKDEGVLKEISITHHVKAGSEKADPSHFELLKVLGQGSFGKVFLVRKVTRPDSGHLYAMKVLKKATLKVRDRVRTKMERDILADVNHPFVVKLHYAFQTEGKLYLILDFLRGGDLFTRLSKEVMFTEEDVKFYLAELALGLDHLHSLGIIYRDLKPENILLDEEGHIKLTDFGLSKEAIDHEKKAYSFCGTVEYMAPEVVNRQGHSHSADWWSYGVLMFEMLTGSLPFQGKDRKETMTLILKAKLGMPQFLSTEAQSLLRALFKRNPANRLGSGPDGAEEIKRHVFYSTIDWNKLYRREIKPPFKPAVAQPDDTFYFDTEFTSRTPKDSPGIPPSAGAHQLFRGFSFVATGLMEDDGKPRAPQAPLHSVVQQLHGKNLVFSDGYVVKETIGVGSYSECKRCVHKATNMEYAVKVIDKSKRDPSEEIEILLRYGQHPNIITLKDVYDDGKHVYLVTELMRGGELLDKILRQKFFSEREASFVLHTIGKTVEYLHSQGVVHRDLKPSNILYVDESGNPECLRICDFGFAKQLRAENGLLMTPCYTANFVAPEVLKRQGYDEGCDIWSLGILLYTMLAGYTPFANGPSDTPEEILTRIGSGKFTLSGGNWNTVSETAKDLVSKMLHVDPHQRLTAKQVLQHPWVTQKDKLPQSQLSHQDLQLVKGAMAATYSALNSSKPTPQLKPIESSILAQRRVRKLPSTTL

CCC(F)(F)c1cc(N2CCC(S(C)(=O)=O)CC2)nc2sc(C(N)=O)c(N)c12 [BI-605906]
inactive: residual activity [1] 90% | inhibition [2] 8.92% | residual activity [3] 72% | residual activity [4] 91% | residual activity [5] 97% | residual activity [6] 89% | residual activity [7] 100% | residual activity [8] 94% | residual activity [9] 97% | residual activity [10] 79% | residual activity [11] 92% | residual activity [12] 93.5%
